Measurements: patent publication US20070128217A1 (priority 2003, published 2007)

Assays:
[1] = tested on: control sera (pooled serum of ten healthy LUMC hospital workers; commercial negative donor pooled serum from the Dutch bloodbank); format: binding, human; set-up: Binding of Control serum LUMC to linear peptides / Binding of Control serum Blood-bank to linear peptides / Binding of Control serum LUMC to looped peptides / Binding of Control Serum Blood-Bank to Looped peptides / Binding of Control serum LUMC to linear peptides of the protein M of SARS-CoV Urbani / Binding of Control serum Blood-bank to linear peptides of the protein M of SARS-CoV Urbani / Binding of Control serum LUMC to looped peptides of the protein M of SARS-CoV Urbani / Binding of Control Serum Blood-Bank to Looped peptides of the protein M of SARS-CoV Urbani: unit not given here
[2] = tested on: recombinant human anti-SARS-CoV antibody 03-018; format: binding; set-up: Binding of antibody 03-018 to linear peptides of the N protein of SARS-CoV Urbani / Binding of antibody 03-018 to looped/cyclic peptides of the N protein of SARS-CoV Urbani: unit not given here
[3] = tested on: rabbit serum obtained by immunizing a rabbit with the SARS-CoV strain Frankfurt 1; format: binding; set-up: Binding of a rabbit serum to linear peptides / Binding of a rabbit serum to looped peptides / Rabbit serum linear peptides / Rabbit serum looped peptides / Binding of a rabbit serum to linear peptides of protein N of SARS-CoV Urbani (Rabbit serum linear peptides) / Binding of a rabbit serum to looped/cyclic peptides of protein N of SARS-CoV Urbani (Rabbit serum looped peptides): unit not given here
[4] = tested on: antibodies in sera from SARS patients (sera 1a, 1b, 2, 6, 37, 62, London, SARS-yellow, SARS-green); format: binding, human; set-up: Binding of serum 6 to linear peptides of protein X1 of SARS-CoV Urbani / Binding of serum 37 to linear peptides of protein X1 of SARS-CoV Urbani / Binding of serum 6 to looped/cyclic peptide (PEPSCAN-ELISA) / Binding of serum 37 to looped/cyclic peptide (PEPSCAN-ELISA) / Binding of serum 37 to looped/cyclic peptides of protein X1 of SARS-CoV Urbani / Binding of serum 6 to linear peptides of protein X2 / Binding of serum 37 to linear peptides of protein X2 / Binding of serum 37 to looped/cyclic peptides of protein X2 of SARS-CoV Urbani / Binding of serum 6 to linear peptides of protein M of SARS-CoV Urbani / Binding of serum 37 to linear peptides of protein M of SARS-CoV Urbani / Binding of serum 6 to looped/cyclic peptides of protein M of SARS-CoV Urbani / Binding of serum 37 to looped/cyclic peptides of protein M of SARS-CoV Urbani / Binding of serum 6 to linear peptides of protein X3 of SARS-CoV Urbani / Binding of serum 37 to linear peptides of protein X3 of SARS-CoV Urbani / Binding of serum 37 to looped/cyclic peptides of protein X3 of SARS-CoV Urbani / Binding of serum 6 to linear peptides of protein X4 of SARS-CoV Urbani / Binding of serum 37 to linear peptides of protein X4 of SARS-CoV Urbani / Binding of serum 37 to looped/cyclic peptides of protein X4 of SARS-CoV Urbani / Binding of serum 6 to linear peptides of protein X5 of SARS-CoV Urbani / Binding of serum 37 to linear peptides of protein X5 of SARS-CoV Urbani / Binding of serum 37 to looped/cyclic peptides of protein X5 of SARS-CoV Urbani / Binding of serum 6 to linear peptides of protein N of SARS-CoV Urbani / Binding of serum 37 to linear peptides of protein N of SARS-CoV Urbani / Binding of serum 6 to linear peptide (PEPSCAN-ELISA) / Binding of serum 1a to looped/cyclic peptides of protein N of SARS-CoV Urbani / Binding of serum 1b to looped/cyclic peptides of protein N of SARS-CoV Urbani / Binding of serum 2 to looped/cyclic peptides of protein N of SARS-CoV Urbani / Binding of serum 6 to looped/cyclic peptides of protein N of SARS-CoV Urbani / Binding of serum 37 to looped/cyclic peptides of protein N of SARS-CoV Urbani / Binding of serum 62 to looped/cyclic peptides of protein N of SARS-CoV Urbani / Binding of serum London to looped/cyclic peptides of protein N of SARS-CoV Urbani / Binding of serum SARS-green to looped/cyclic peptides of protein N of SARS-CoV Urbani: unit not given here

Row | Sequence | Binding of antibody 03-018 to linear peptides of the N protein of SARS-CoV Urbani [2] | Binding of antibody 03-018 to looped/cyclic peptides of the N protein of SARS-CoV Urbani [2] | Binding of a rabbit serum to linear peptides of protein N of SARS-CoV Urbani (Rabbit serum linear peptides) [3] | Binding of a rabbit serum to looped/cyclic peptides of protein N of SARS-CoV Urbani (Rabbit serum looped peptides) [3] | Binding of serum 1a to linear peptides of protein N of SARS-CoV Urbani [4] | Binding of serum 1a to looped/cyclic peptides of protein N of SARS-CoV Urbani [4] | Binding of serum 1b to linear peptides of protein N of SARS-CoV Urbani [4] | Binding of serum 1b to looped/cyclic peptides of protein N of SARS-CoV Urbani [4] | Binding of serum 2 to linear peptides of protein N of SARS-CoV Urbani [4] | Binding of serum 2 to looped/cyclic peptides of protein N of SARS-CoV Urbani [4] | Binding of serum 6 to linear peptides of protein N of SARS-CoV Urbani [4] | Binding of serum 6 to looped/cyclic peptides of protein N of SARS-CoV Urbani [4] | Binding of serum 37 to linear peptides of protein N of SARS-CoV Urbani [4] | Binding of serum 37 to looped/cyclic peptides of protein N of SARS-CoV Urbani [4] | Binding of serum 62 to linear peptides of protein N of SARS-CoV Urbani [4] | Binding of serum 62 to looped/cyclic peptides of protein N of SARS-CoV Urbani [4] | Binding of serum London to linear peptides of protein N of SARS-CoV Urbani [4] | Binding of serum London to looped/cyclic peptides of protein N of SARS-CoV Urbani [4] | Binding of serum SARS-green to looped/cyclic peptides of protein N of SARS-CoV Urbani [4] | Binding of serum SARS-yellow to looped/cyclic peptides of protein N of SARS-CoV Urbani [4] | further results
1 | KHWPQIAQFAPSASA | 0.1 | 0.2 | 0.2 | 0.0 | 0.3 | 0.3 | 0.1 | 0.1 | 0.3 | 0.3 | 0.2 | 0.3 | 0.8 | 0.2 | 0.7 | 0.4 | 0.7 | 0.5 | 0.4 | 0.2 | Control Serum Blood-Bank Looped peptides [1]: 0.7; Control serum Blood-bank linear peptides [1]: 0.8; Control serum LUMC linear peptides [1]: 0.7; Control serum LUMC looped peptides [1]: 0.6; Binding of serum SARS-green to linear peptides of protein N of SARS-CoV Urbani [4]: 0.6; Binding of serum SARS-yellow to linear peptides of protein N of SARS-CoV Urbani [4]: 0.8
2 | GNFGDQDLIRQGTDY | 0.1 | 0.2 | 0.2 | 0.5 |  | 0.5 |  | 0.3 |  | 0.5 |  | 0.3 |  | 0.8 |  | 0.8 |  | 0.5 | 0.7 | 0.6 | Binding of Control Serum Blood-Bank to Looped peptides [1]: 0.9; Binding of Control serum Blood-bank to linear peptides [1]: 0.7; Binding of Control serum LUMC to linear peptides [1]: 0.6; Binding of Control serum LUMC to looped peptides [1]: 0.9; Binding of serum 1a to linear peptide (PEPSCAN-ELISA) [4]: 0.3; Binding of serum 1b to linear peptide (PEPSCAN-ELISA) [4]: 0.2; Binding of serum 2 to linear peptide (PEPSCAN-ELISA) [4]: 0.2; Binding of serum 6 to linear peptide (PEPSCAN-ELISA) [4]: 0.2; Binding of serum 37 to linear peptide (PEPSCAN-ELISA) [4]: 0.8; Binding of serum 62 to linear peptide (PEPSCAN-ELISA) [4]: 0.7; Binding of serum London to linear peptide (PEPSCAN-ELISA) [4]: 0.6; Binding of serum SARS-green to linear peptide (PEPSCAN-ELISA) [4]: 0.5; Binding of serum SARS-yellow to linear peptide (PEPSCAN-ELISA) [4]: 0.8
3 | ASWFTALTQHGKEEL | 0.1 | 0.2 | 0.1 | 0.1 | 0.2 | 0.2 | 0.1 | 0.1 | 0.1 | 0.2 | 0.1 | 0.1 | 0.9 | 0.4 | 0.6 | 0.3 | 0.5 | 0.3 | 0.2 | 0.1 | Binding of Control Serum Blood-Bank to Looped peptides [1]: 0.5; Binding of Control serum Blood-bank to linear peptides [1]: 0.7; Binding of Control serum LUMC to linear peptides [1]: 0.5; Binding of Control serum LUMC to looped peptides [1]: 0.4; Binding of serum SARS-green to linear peptides of protein N of SARS-CoV Urbani [4]: 0.4; Binding of serum SARS-yellow to linear peptides of protein N of SARS-CoV Urbani [4]: 0.4
4 | VTLLPAADMDDFSRQ | 0.1 | 0.2 | 0.0 | 0.0 | 0.3 | 0.3 | 0.1 | 0.1 | 0.2 | 0.2 | 0.1 | 0.0 | 0.6 | 0.1 | 0.6 | 0.4 | 0.6 | 0.1 | 0.2 | 0.2 | Control Serum Blood-Bank Looped peptides [1]: 0.1; Control serum Blood-bank linear peptides [1]: 0.5; Control serum LUMC linear peptides [1]: 0.5; Control serum LUMC looped peptides [1]: 0.4; Binding of serum SARS-green to linear peptides of protein N of SARS-CoV Urbani [4]: 0.3; Binding of serum SARS-yellow to linear peptides of protein N of SARS-CoV Urbani [4]: 0.6
